Test results taken from patent US20230340607A1, “COMPOSITIONS AND METHODS FOR DETECTING GENE FUSIONS OF RAD51AP1 AND DYRK4 AND FOR DIAGNOSING AND TREATING CANCER” (UNIVERSITY OF PITTSBURGH-OF THE COMMONWEALTH SYSTEM OF …, priority 2020, published 2023).
“Also recorded” adds a separate entry of the source.

How the values were obtained:
Format in all cases: cell-based, human
[1] = tested on: T47D cells inducibly expressing RAD51AP1-DYRK4 (E9-E2); assay: Clonogenic assay, T47D cells inducibly expressing RAD51AP1-DYRK4 (E9-E2)
Procedure: (§1) Next, the sensitivity of the engineered T47D cells inducibly expressing RAD51AP1-DYRK4 or wtRAD51AP1 to MEK inhibition was assessed. The first FDA approved MEK inhibitor currently under phase II clinical trial for triple negative breast cancer (NCI 9455) called Trametinib was used for MEK inhibition. MEK inhibition requires longer term drug exposure to exert therapeutic effect (Xue, Z. et al. (2018)). Therefore, clonogenic assays on the T47D models were performed to assess the cell viability following trametinib treatment in the presence or absence of doxycycline induction. Since T47D cells express EGFR, the cells were also treated with lapatinib to observe the combinatory effect.
(§2) Clonogenic assay. The E9-E2 and wtRAD51AP1 expressing T47D cells were seeded at a density of 1000 cells/well in a 6-well plate with or without 200 ng/ml doxycycline treatment and incubated for 14-21 days. The colonies were stained with 0.5% crystal violet in 50% ethanol and counted using GelCount (Oxford Optronix Ltd.). The Trametinib (MEKi) and Lapatinib (EGFR/HER2 inhibitor) used for in vitro therapeutic studies were purchased from Selleck Chemicals. To test their therapeutic effects in the engineered T47D cells and other cell lines, cells (5000-10000, depending on the doubling time) were plated in 24-well for 24 hours prior to treatment with growth media containing trametinib, lapatinib or DMSO was replaced every 4 days for approximately 2 weeks. After this, cells were stained with 0.5% crystal violet in water containing 50% ethanol for 15 minutes at room temperature. The area and intensity of each well was measured using Image J. with Colony Area Plug In.

[2] = tested on: MDAMB361 cells; assay: Clonogenic assay, MDAMB361 cells
Procedure: (§3) Since MDAMB361 is a HER2 positive cell line we also assessed the therapeutic effect of lapatinib treatment alone or in combination with trametinib.
as §2

[3] = tested on: T47D cells inducibly expressing wtRAD51AP1; assay: Clonogenic assay, T47D cells inducibly expressing wtRAD51AP1; settings: induction of wtRAD51AP1 expression
Procedure: as §1
Clonogenic assay. The E9-E2 and wtRAD51AP1 expressing T47D cells were seeded at a density of 1000 cells/well in a 6-well plate with or without 200 ng/ml doxycycline treatment and incubated for 14-21 days. The colonies were stained with 0.5% crystal violet in 50% ethanol and counted using GelCount (Oxford Optronix Ltd.). The Trametinib (MEKi) and Lapatinib (EGFR/HER2 inhibitor) used for in vitro therapeutic studies were purchased from Selleck Chemicals. […] The area and intensity of each well was measured using Image J. with Colony Area Plug In.

[4] = tested on: MAP3K1 protein level and JNK-JUN phosphorylation; assay: Western blot of engineered T47D cells after trametinib: MAP3K1/JNK/JUN; settings: 0.5uM trametinib, 24 hours
Procedure: (§4) Compensative HER2/PI3K/AKT and MAP3K1/JNK/JUN activation has been reported to mediate resistance to MEK inhibitors (Avivar-Valderas, A. et al. (2018); Maher, C.A. et al. (2009)). We thus examined if RAD51AP1-DYRK4 and wtRAD51AP1 differentially modulate these survival pathways following MEK inhibition. To test this, we treated the engineered T47D cells with 0.5uM of trametinib or vehicle for 24 hours, to assess the early signaling changes following trametinib treatment. […] In contrast, this compensatory signaling was activated in T47D cells overexpressing wtRAD51AP1 following MEK inhibition (FIG. 7A). In addition, RAD51AP1-DYRK4 also repressed MAP3K1 protein level and JNK-JUN phosphorylation under MEK inhibition.
(§5) Western blot. For immunoblot analysis, E9-E2 and wtRAD51AP1 expression was induced in transduced T47D cells with 200 ng/ml doxycycline for one week. Total proteins were extracted by homogenizing the cells in RIPA Lysis Buffer (Sigma-Aldrich), supplemented with complete protease inhibitor cocktail tablet (Roche Diagnostics), 50 mM beta-Glycerophosphate, 1 mM sodium orthovanadate, 1 mM sodium fluoride, and 1 mM PMSF. Thirty micrograms of protein extracts were denatured in sample buffer, separated by SDS-PAGE, and transferred onto a nitrocellulose membrane (Invitrogen). The membranes were blocked and incubated overnight at 4° C. with primary antibodies. […]

[5] = tested on: HCC1937 cells; assay: Clonogenic assay, HCC1937 cells; settings: HCC1937 overexpressing RAD51AP1-DYRK4, compared to MCF7, HCC38, HCC1428, and ZR-75-30 cell lines
Procedure: as §3, §2

[6] = tested on: HER2/PI3K/AKT/Raptor activation; assay: Western blot of engineered T47D cells after trametinib: HER2/PI3K/AKT/Raptor; settings: 0.5uM trametinib, 24 hours
Procedure: as §4, §5

[7] = T47D cells overexpressing RAD51AP1-DYRK4

Structure (SMILES) | therapeutic benefit of lapatinib alone (clonogenic assay) ([1]; engineered T47D cells) | therapeutic benefit of lapatinib in combination with trametinib (clonogenic assay) ([1]; engineered T47D cells, combination with trametinib) | therapeutic effect of lapatinib alone (clonogenic assay) ([2]; MDAMB361, HER2 positive) | therapeutic effect of lapatinib in combination with trametinib (clonogenic assay) ([2]; MDAMB361, combination with trametinib) | increased sensitivity to trametinib (clonogenic assay, cell viability) [3] | increased sensitivity to trametinib (clonogenic assay, cell viability) ([3]; listed as Trametinib) | MAP3K1/JNK/JUN signaling following MEK inhibition (Western blot) ([4]; T47D cells ectopically expressing wtRAD51AP1) | MAP3K1 protein level and JNK-JUN phosphorylation under MEK inhibition (Western blot) [4, 7] | sensitivity to trametinib (clonogenic assay, cell viability) ([1]; T47D cells, doxycycline-induced ectopic RAD51AP1-DYRK4 (E9-E2) expression vs absence of induction) | sensitivity to trametinib treatment (clonogenic assay) ([2]; MDAMB361 overexpressing RAD51AP1-DYRK4, compared to MCF7, HCC38, HCC1428, and ZR-75-30 cell lines) | sensitivity to trametinib treatment (clonogenic assay) [5] | HER2/PI3K/AKT/Raptor activation under MEK inhibition (Western blot) [6, 7] | compensatory HER2/PI3K/AKT/Raptor signaling following MEK inhibition (Western blot) ([6]; T47D cells overexpressing wtRAD51AP1)
CS(=O)(=O)CCNCc1ccc(-c2ccc3ncnc(Nc4ccc(OCc5cccc(F)c5)c(Cl)c4)c3c2)o1 [lapatinib, Lapatinib] | did not result in additional therapeutic benefits; also recorded: did not show additional therapeutic benefits | did not result in additional therapeutic benefits; also recorded: did not show additional therapeutic benefits | highly resistant; also recorded: resistance | highly sensitive |  |  |  |  |  |  |  |  | 
CC(=O)Nc1cccc(-n2c(=O)n(C3CC3)c(=O)c3c(Nc4ccc(I)cc4F)n(C)c(=O)c(C)c32)c1 [trametinib] |  |  |  |  | not observed | not | did not observe activation | repressed | significantly increased sensitivity | markedly higher sensitivity | markedly higher sensitivity | attenuates | activated; also recorded: compensatory activation
